Results on eleven compounds are retold here after ChEMBL document CHEMBL1201862, “PubChem BioAssay data set” (2004).

Holding throughout (assay): NCI tumour cell line growth inhibition, 48 h
Test [1] deals with ACHN.
Test [2] concerns HOP-92.
The test system of test [3] is 786-0.
The subject of test [4] is SF-295.
Test [5] has as its system SK-MEL-28.
Test [6] relates to M14.
Test [7] has as its system HCT-15.
In test [8] the test system is BT-549.
Test [9] concerns SK-MEL-2.
Test [10] relates to EKVX.
The subject of test [11] is SK-OV-3.
Test [12] deals with HOP-62.
The test system of test [13] is UACC-62.
In test [14] the test system is OVCAR-4.
Test [15] has as its system NCI-H23.
Test [16] deals with MOLT-4.
Test [17] concerns TK-10.
Test [18] relates to RXF 393.
In test [19] the test system is SNB-75.

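In this assay, cells in 96-well plates receive the compound at five concentrations for 48 hours. Endpoints are linearly interpolated between the surrounding concentrations. At the GI50, growth is halved.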 The source made the active and inactive calls. No stated cut-off is given here; in the data, active = GI50 up to about 1.1 µM and inactive = higher. Where a SMILES comes first, the peptide text is derived from it. Residues, ends and D or L forms follow the SMILES beside them. [ ]: non-standard residue; d: D form. The star is where a group is joined. *: point of attachment. Cbz = O=C(OCc1ccccc1)*; Boc = CC(C)(C)OC(=O)*; Aib = CC(C)(N)C(=O)O; OBn = c1ccc(CO*)cc1 A value given as a limit tells only on which side of the number the result lay.

On to `COP(C)(=O)C(Cc1c[nH]c2ccccc12)NC(=O)OCc1ccccc1` (configuration not stated), for which the GI50 in test [1], in [2], in [3], in test [4], in test [5] and in [6] was > 100 µM (inactive) throughout. The GI50 in test [7] was > 100 µM; in [8] it was > 100 µM (inactive); in [9] it was > 100 µM (inactive); in test [10], > 100 µM (inactive); in test [11], > 100 µM (inactive); in test [12], > 100 µM (inactive). In addition, the GI50 in test [13], in test [14], in [15], in test [16], in test [17] and in [18] was > 100 µM (inactive) in each case.

Take `c1cncc(C(Nc2cccc3cccnc23)Nc2cccc3cccnc23)c1`: the GI50 is > 100 µM (inactive) in test [1]; > 100 µM (inactive) in [2]; > 100 µM (inactive) in [3]; > 100 µM (inactive) in test [4]; > 100 µM (inactive) in test [6]; > 100 µM in test [7]. Also, the GI50 in [8] was > 100 µM (inactive); in [19], 37.8 µM (inactive); in [9] it was > 100 µM (inactive); in test [10], 69.7 µM (inactive); in [11], > 100 µM (inactive); in [12] it was > 100 µM (inactive). Moreover, the GI50 in test [13] was > 100 µM (inactive); in test [15] it was > 100 µM (inactive); in [17], > 100 µM (inactive); in test [18], 77.3 µM (inactive).

Turning to `CC(=O)O[C@H]1C(=O)[C@@]2(C)[C@H]([C@H](OC(=O)c3ccc([N+](=O)[O-])cc3)[C@]3(O)C[C@H](OC(=O)[C@H](O)[C@@H](NC(=O)c4ccccc4)c4ccccc4)C(C)=C1C3(C)C)[C@]1(OC(C)=O)CO[C@@H]1C[C@@H]2O`, the GI50 in [1], in test [2], in [3], in test [4], in [5] and in test [6] was > 25 µM (inactive) each time. The GI50 in test [7] is > 25 µM; in test [8], > 25 µM (inactive); in test [19], > 25 µM (inactive); in test [10], > 25 µM (inactive); in test [11] it was > 25 µM (inactive); in [12], > 25 µM (inactive). Also, the GI50 in test [13], in test [14], in [15], in [16], in test [17] and in [18] was > 25 µM (inactive) throughout.

On to `CCOC(=O)c1sc2nc(SC)nc(Nc3ccc4c(c3)OCCCO4)c2c1N`, for which the GI50 in [1] is 26.9 µM (inactive); in test [2] it was 61.1 µM (inactive); in test [3] it was 19.3 µM (inactive); in test [4], 8.95 µM (inactive); in test [5], > 100 µM (inactive); in [6], 17.3 µM (inactive). Also, the GI50 in test [7] is 10.9 µM; in [8], 17.5 µM (inactive); in test [9], 62.5 µM (inactive); in test [10] it was 10.6 µM (inactive); in test [11], 55.6 µM (inactive); in [12], 20.1 µM (inactive). The GI50 in test [13] was 9.84 µM (inactive); in [14], 5.47 µM (inactive); in [15] it was 5.92 µM (inactive); in test [16] it was 2.55 µM (inactive); in test [17], 40.6 µM (inactive); in test [18] it was 11.8 µM (inactive).

Turning to `CC(NC(=O)C(C)(C)NC(=O)C(CC(=O)OCc1ccccc1)NC(=O)OCc1ccccc1)C(N)=O` (configuration not stated) (Cbz-Asp(OBn)-[Aib]-Ala-NH2; configuration not given here), the GI50 in test [1] is > 100 µM (inactive); in test [2], > 100 µM (inactive); in test [3], > 100 µM (inactive); in [4] it was 43 µM (inactive); in [5], > 100 µM (inactive); in [6], > 100 µM (inactive). Besides, the GI50 in test [7] is > 100 µM; in test [8], > 100 µM (inactive); in test [9], > 100 µM (inactive); in test [10], > 100 µM (inactive); in [11] it was > 100 µM (inactive); in [12], > 100 µM (inactive). The GI50 in test [13], in test [14], in test [15], in test [16], in [17] and in test [18] was > 100 µM (inactive) throughout.

For the compound `C=C1CN(C2=NCCO2)C1`, the GI50 in test [1], in test [2], in test [3], in test [4], in test [5] and in test [6] was > 100 µM (inactive) in each case. For the same compound, the GI50 in test [7] was > 100 µM; in test [8], > 100 µM (inactive); in test [19], > 100 µM (inactive); in test [9] it was > 100 µM (inactive); in test [10] it was > 100 µM (inactive); in [12], > 100 µM (inactive). Also, the GI50 in test [13], in test [14], in [15], in test [16], in test [17] and in test [18] was > 100 µM (inactive) in each case.

With `CCOC(=O)NC(Nc1c(F)c(F)c(F)c(F)c1F)(C(F)(F)F)C(F)(F)F`, the GI50 in test [1], in [2], in test [3], in test [4], in test [5] and in test [6] was > 100 µM (inactive) each time. Also, the GI50 in test [7] was > 100 µM; in [8], > 100 µM (inactive); in test [19] it was > 100 µM (inactive); in test [9] it was > 100 µM (inactive); in test [10], > 100 µM (inactive); in [11] it was > 100 µM (inactive). For the same compound, the GI50 in test [12], in test [13], in [15], in test [16], in test [17] and in [18] was > 100 µM (inactive) throughout.

For `O=C(CCc1ccc(O)c(O)c1)NCCc1cc(O)cc(OCc2ccccc2)c1`, the GI50 is 8.75 µM (inactive) in [1]; 36.5 µM (inactive) in test [2]; 45.7 µM (inactive) in test [3]; 46.7 µM (inactive) in test [4]; 44.3 µM (inactive) in test [5]; 32.1 µM (inactive) in test [6]. The GI50 in [7] is 11.6 µM; in test [8], 10.6 µM (inactive); in test [19], 15.6 µM (inactive); in test [9], 43.1 µM (inactive); in test [10] it was 53.5 µM (inactive); in [11], 28.7 µM (inactive). Also, the GI50 is 61.1 µM (inactive) in test [12]; 31.3 µM (inactive) in [13]; 21.6 µM (inactive) in test [15]; 14 µM (inactive) in [16]; > 100 µM (inactive) in [17]; 83.4 µM (inactive) in test [18].

For the compound `CC(C)CC(NC(=O)OC(C)(C)C)C(=O)NC(CC(=O)OCc1ccccc1)C(=O)OCc1ccccc1` (stereo not drawn) (Boc-Leu-Asp(OBn)-OBn; configuration not given here), the GI50 in test [2] is 30.6 µM (inactive); in test [3], 19 µM (inactive); in test [4], 43.7 µM (inactive); in [6], 19.2 µM (inactive); in test [8] it was 81.5 µM (inactive); in [19], 87.9 µM (inactive). In addition, the GI50 was 63 µM (inactive) in test [9]; > 100 µM (inactive) in [10]; > 100 µM (inactive) in test [11]; > 100 µM (inactive) in [12]; 21.9 µM (inactive) in [13]; 32.4 µM (inactive) in [15]. Besides, the GI50 was 31 µM (inactive) in test [16], 21.3 µM (inactive) in test [17] and 26.1 µM (inactive) in test [18].

With `COc1c(C)c(OC)c(C(=O)CC(C)C)c(OC)c1C`, the GI50 in test [1], in test [2], in [3], in [4], in test [5] and in test [6] was > 100 µM (inactive) throughout. The GI50 in [7] is 37.1 µM; in test [8] it was > 100 µM (inactive); in [9] it was > 100 µM (inactive); in test [10] it was > 100 µM (inactive); in test [11], > 100 µM (inactive); in test [12], > 100 µM (inactive). The GI50 was > 100 µM (inactive) in test [13]; 23.6 µM (inactive) in [14]; 83 µM (inactive) in test [15]; 43.7 µM (inactive) in test [16]; > 100 µM (inactive) in test [17]; > 100 µM (inactive) in test [18].

Regarding `CCOc1cc2c(cc1O)C(N)C[C@@H]1[C@@H]2CC[C@]2(C)[C@@H](O)CC[C@@H]12` (some centres not stated), the GI50 in test [1] was 34.8 µM (inactive); in [2], 25.6 µM (inactive); in test [3], 40.3 µM (inactive); in [4], 32.7 µM (inactive); in [5], 42.8 µM (inactive); in test [6], 26.9 µM (inactive). Further, the GI50 in test [7] was 45.7 µM; in [8], 40.9 µM (inactive); in test [19], 15 µM (inactive); in test [9], 41.1 µM (inactive); in test [10], 80.9 µM (inactive); in test [12] it was 46.7 µM (inactive). Also, the GI50 was 30.8 µM (inactive) in [14]; 49.5 µM (inactive) in test [15]; 33.3 µM (inactive) in test [16]; 83 µM (inactive) in test [17]; 56.5 µM (inactive) in [18].
